What was measured:
[1] = tested on: Smn protein; assay: Smn protein assay (HTRF) in cultured cells (SMA patient fibroblasts GM03813); format: cell-based, human; conditions: 48 hours; for maximum fold (Fold) increase of Smn protein: SMA patient fibroblast cells, 7-point concentration curve, relative to vehicle control; for EC1.5x for Smn protein expression: SMA patient fibroblast cells (GM03813), HTRF, 7-point concentration data, concentration producing 1.5 times Smn protein vs DMSO vehicle control
Method in brief: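 Smn level is expressed as fold over vehicle, from blank-corrected ΔF of the 665/620 nm HTRF ratio. Readout used anti-SMN d2 and kryptate antibodies on RIPA lysates. GM03813 SMA fibroblasts had 48 h exposure at 37° C to seven 3.16-fold compound dilutions, run in triplicate.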

[2] = tested on: SMN2 minigene mRNA (SMN2-A minigene construct); assay: SMN2 minigene mRNA splicing RT-qPCR assay in cultured cells; format: cell-based, human; conditions: Homo sapiens, HEK293-H; HEK293H cells stably transfected with SMN2-A minigene, 24 hours, 7-point concentration data; concentration giving 1.5-fold SMN2 full length mRNA relative to vehicle-treated cells; read-out: EC1.5x for production of full length SMN2 mRNA
Method in brief: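 Full-length SMN2 minigene mRNA, measured by exon 7/luciferase-specific RT-qPCR that excludes endogenous SMN1/SMN2, was normalized to GAPDH and expressed relative to vehicle-treated cells via modified ΔΔCt. Stably transfected HEK293H cells received compound (7-point, 3.16-fold series, duplicates) for 24 h at 37 °C.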

## Cc1ccn2cc(-c3cc4ccc(N5C[C@@H](C)N[C@@H](C)C5)nc4oc3=O)nc2c1 [Cpd 100, 7-[(3R,5S)-3,5-dimethylpiperazin-1-yl]-3-(7-methylimidazo[1,2-a]pyridin-2-yl)-2H-pyrano[2,3-b]pyridin-2-one]
[1]
  maximum fold (Fold) increase of Smn protein: *** (a fold increase between >1.35 and ≦1.5 is indicated by three stars (***))
[2]
  EC (1.5-fold): ≤ 0.1 µM
other
  melting point: 246 to 249 °C

## Cc1cn2cc(-c3cc4ccc(N5C[C@@H](C)N[C@@H](C)C5)nc4oc3=O)nc2cn1 [Cpd 101, 7-[(3R,5S)-3,5-dimethylpiperazin-1-yl]-3-(6-methylimidazo[1,2-a]pyrazin-2-yl)-2H-pyrano[2,3-b]pyridin-2-one]
[1]
  EC1.5x for Smn protein expression: *** (an EC1.5× between >0.3 μM and ≦1 μM is indicated by three stars (***))
  maximum fold (Fold) increase of Smn protein: **** (a fold increase between >1.5 and ≦1.65 is indicated by four stars (****))
[2]
  EC (1.5-fold): ≤ 0.1 µM
other
  melting point: 279 to 281 °C

## Cc1cn2cc(-c3cc4ccc(N5C[C@H](C)N(C)C[C@H]5C)nc4oc3=O)nc2cn1 [Cpd 103, 3-(6-methylimidazo[1,2-a]pyrazin-2-yl)-7-[(2R,5S)-2,4,5-trimethylpiperazin-1-yl]-2H-pyrano[2,3-b]pyridin-2-one]
[1]
  EC1.5x for Smn protein expression: *** (an EC1.5× between >0.3 μM and ≦1 μM is indicated by three stars (***))
  maximum fold (Fold) increase of Smn protein: **** (a fold increase between >1.5 and ≦1.65 is indicated by four stars (****))
[2]
  EC (1.5-fold): 0.1 to 0.3 µM
other
  melting point: 248 to 250 °C

## Cc1cn2cc(-c3cc4ccc(N5CCCNCC5)nc4oc3=O)nc2cn1.Cl [Cpd 104, 7-(1,4-diazepan-1-yl)-3-(6-methylimidazo[1,2-a]pyrazin-2-yl)-2H-pyrano[2,3-b]pyridin-2-one hydrochloride]
[1]
  maximum fold (Fold) increase of Smn protein: ** (a fold increase between >1.2 and ≦1.35 is indicated by two stars (**))
[2]
  EC (1.5-fold): ≤ 0.1 µM
other
  melting point: 267 to 269 °C

## Cc1cn2cc(-c3cc4ccc(N5CCCN(C)CC5)nc4oc3=O)nc2cn1 [Cpd 105, 7-(4-methyl-1,4-diazepan-1-yl)-3-(6-methylimidazo[1,2-a]pyrazin-2-yl)-2H-pyrano[2,3-b]pyridin-2-one]
[1]
  EC1.5x for Smn protein expression: ** (an EC1.5× between >1 and ≦3 μM is indicated by two stars (**))
  maximum fold (Fold) increase of Smn protein: *** (a fold increase between >1.35 and ≦1.5 is indicated by three stars (***))
[2]
  EC (1.5-fold): ≤ 0.1 µM
other
  melting point: 290 to 293 °C

## Cc1cc(F)c2nc(-c3cc4ccc(N5C[C@@H](C)N[C@@H](C)C5)nc4oc3=O)cn2c1 [Cpd 106, 7-[(3R,5S)-3,5-dimethylpiperazin-1-yl]-3-(8-fluoro-6-methylimidazo[1,2-a]pyridin-2-yl)-2H-pyrano[2,3-b]pyridin-2-one]
[1]
  EC1.5x for Smn protein expression: *** (an EC1.5× between >0.3 μM and ≦1 μM is indicated by three stars (***))
  maximum fold (Fold) increase of Smn protein: *** (a fold increase between >1.35 and ≦1.5 is indicated by three stars (***))
[2]
  EC (1.5-fold): ≤ 0.1 µM
other
  melting point: 280 to 283 °C

## Cc1cc(F)c2nc(-c3cc4ccc(N5CCCNCC5)nc4oc3=O)cn2c1.Cl [Cpd 107, 7-(1,4-diazepan-1-yl)-3-(8-fluoro-6-methylimidazo[1,2-a]pyridin-2-yl)-2H-pyrano[2,3-b]pyridin-2-one hydrochloride]
[1]
  EC1.5x for Smn protein expression: *** (an EC1.5× between >0.3 μM and ≦1 μM is indicated by three stars (***))
  maximum fold (Fold) increase of Smn protein: **** (a fold increase between >1.5 and ≦1.65 is indicated by four stars (****))
[2]
  EC (1.5-fold): ≤ 0.1 µM
other
  melting point: 276 to 279 °C

## O=c1oc2nc(N3CCNCC3)ccc2cc1-c1cn2cccc(F)c2n1 [Cpd 108, 3-(8-fluoroimidazo[1,2-a]pyridin-2-yl)-7-(piperazin-1-yl)-2H-pyrano[2,3-b]pyridin-2-one]
[1]
  EC1.5x for Smn protein expression: **** (an EC1.5×≦0.3 μM is indicated by four stars (****))
  maximum fold (Fold) increase of Smn protein: **** (a fold increase between >1.5 and ≦1.65 is indicated by four stars (****))
[2]
  EC (1.5-fold): ≤ 0.1 µM
other
  melting point: 231 to 235 °C

## O=c1oc2nc(N3CCNCC3)ccc2cc1-c1cn2cccc(Cl)c2n1 [Cpd 109, 3-(8-chloroimidazo[1,2-a]pyridin-2-yl)-7-(piperazin-1-yl)-2H-pyrano[2,3-b]pyridin-2-one]
[1]
  EC1.5x for Smn protein expression: **** (an EC1.5×≦0.3 μM is indicated by four stars (****))
  maximum fold (Fold) increase of Smn protein: **** (a fold increase between >1.5 and ≦1.65 is indicated by four stars (****))
[2]
  EC (1.5-fold): ≤ 0.1 µM
other
  melting point: 233 to 237 °C

## CN1CCN(c2ccc3cc(-c4cn5cccc(F)c5n4)c(=O)oc3n2)CC1 [Cpd 110, 3-(8-fluoroimidazo[1,2-a]pyridin-2-yl)-7-(4-methylpiperazin-1-yl)-2H-pyrano[2,3-b]pyridin-2-one]
[1]
  EC1.5x for Smn protein expression: **** (an EC1.5×≦0.3 μM is indicated by four stars (****))
  maximum fold (Fold) increase of Smn protein: **** (a fold increase between >1.5 and ≦1.65 is indicated by four stars (****))
[2]
  EC (1.5-fold): ≤ 0.1 µM
other
  melting point: 258 to 262 °C

## CN1CCN(c2ccc3cc(-c4cn5cccc(Cl)c5n4)c(=O)oc3n2)CC1 [Cpd 111, 3-(8-chloroimidazo[1,2-a]pyridin-2-yl)-7-(4-methylpiperazin-1-yl)-2H-pyrano[2,3-b]pyridin-2-one]
[1]
  EC1.5x for Smn protein expression: **** (an EC1.5×≦0.3 μM is indicated by four stars (****))
  maximum fold (Fold) increase of Smn protein: *** (a fold increase between >1.35 and ≦1.5 is indicated by three stars (***))
[2]
  EC (1.5-fold): ≤ 0.1 µM
other
  melting point: 256 to 259 °C

## Cc1cc(F)c2nc(-c3cc4ccc(N5CCCN(C)CC5)nc4oc3=O)cn2c1 [Cpd 113, 3-(8-fluoro-6-methylimidazo[1,2-a]pyridin-2-yl)-7-(4-methyl-1,4-diazepan-1-yl)-2H-pyrano[2,3-b]pyridin-2-one]
[1]
  EC1.5x for Smn protein expression: *** (an EC1.5× between >0.3 μM and ≦1 μM is indicated by three stars (***))
  maximum fold (Fold) increase of Smn protein: **** (a fold increase between >1.5 and ≦1.65 is indicated by four stars (****))
[2]
  EC (1.5-fold): ≤ 0.1 µM
other
  melting point: 269 to 273 °C

## CN1CCCN(c2ccc3cc(-c4cn5ccsc5n4)c(=O)oc3n2)CC1 [Cpd 114, 3-(imidazo[2,1-b][1,3]thiazol-6-yl)-7-(4-methyl-1,4-diazepan-1-yl)-2H-pyrano[2,3-b]pyridin-2-one]
[1]
  EC1.5x for Smn protein expression: *** (an EC1.5× between >0.3 μM and ≦1 μM is indicated by three stars (***))
  maximum fold (Fold) increase of Smn protein: **** (a fold increase between >1.5 and ≦1.65 is indicated by four stars (****))
[2]
  EC (1.5-fold): ≤ 0.1 µM
other
  melting point: 224 to 226 °C

## Cc1ccn2cc(-c3cc4ccc(N5CCCN(C)CC5)nc4oc3=O)nc2c1 [Cpd 115, 7-(4-methyl-1,4-diazepan-1-yl)-3-(7-methylimidazo[1,2-a]pyridin-2-yl)-2H-pyrano[2,3-b]pyridin-2-one]
[1]
  maximum fold (Fold) increase of Smn protein: *** (a fold increase between >1.35 and ≦1.5 is indicated by three stars (***))
[2]
  EC (1.5-fold): ≤ 0.1 µM
other
  melting point: 241 to 243 °C

## Cc1ccc2nc(-c3cc4ccc(N5CCCN(C)CC5)nc4oc3=O)cn2c1 [Cpd 116, 7-(4-methyl-1,4-diazepan-1-yl)-3-(6-methylimidazo[1,2-a]pyridin-2-yl)-2H-pyrano[2,3-b]pyridin-2-one]
[1]
  EC1.5x for Smn protein expression: *** (an EC1.5× between >0.3 μM and ≦1 μM is indicated by three stars (***))
  maximum fold (Fold) increase of Smn protein: *** (a fold increase between >1.35 and ≦1.5 is indicated by three stars (***))
[2]
  EC (1.5-fold): ≤ 0.1 µM
other
  melting point: 233 to 236 °C

From patent publication US9371336B2, “Compounds for treating spinal muscular atrophy” (PTC Therapeutics Inc., priority 2012, dated 2016)
